# Results: patent US20200038417A1, “METHODS AND COMPOSITIONS FOR TREATING COGNITIVE IMPAIRMENT” (Enterin, Inc., priority 2018, published 2020)
# Entries after “also recorded” stand apart in the source; their conditions may differ.
# Tests used:
# [1] = Preclinical studies of oral squalamine (ENT-01) in rats; assay type: in vivo; details: rat, oral dosing of radioactive ENT-01, portal blood concentrations
# [2] = test system: patients with PD and constipation; test: Effect on bowel function (prokinetic response, stool diary indices), Phase 2 trial; assay type: in vivo, human; details: patients with baseline ≥1 CSBM/week
# Protocol: Following successful screening, all subjects underwent a 14-day run-in period where the degree of constipation was assessed through a validated daily log (Zinsmeister et al. 2013) establishing baseline CSBMs/week. Subjects with an average of <3 CSBMs/week proceeded to dosing.
# (§1) Tolerability limits included diarrhea or vomiting.
# (§2) In Stage 2, 34 patients were evaluated.
# The primary efficacy outcome variable was whether or not a subject was a “success” or “failure”. This is an endpoint based on subject diary entries for the “fixed dose” period prior to the endpoint assessment defined as average complete stool frequency increase by 1 or more over baseline, or 3 or more complete spontaneous stools/week. The subject was deemed a “success” if s/he met one or more of the criteria listed above, otherwise the subject was deemed a “failure”. The primary analysis was based on all subjects with a baseline assessment and an assessment at the end of the “fixed-dose” period and was a comparison of the proportion of successes with 0.10 (the null hypothesis corresponding to no treatment effect).
# [3] = target: T1, αS (Homo sapiens, UniProt P37840); details: in vitro; cited from earlier work
# [4] = test system: patients with PD; test: Circadian rhythm of wrist skin temperature (I-Button); assay type: in vivo, human; details: fixed dose vs baseline, 12 evaluable patients
# Protocol: (6) I-Button Temperature Assessment. The I-Button is a small, rugged self-sufficient system that measures temperature and records the results in a protected memory section. The Thermochron I-Button DS1921H (Maxim Integrated, Dallas, Tex.) was used for skin temperature measurement. I-Buttons were programmed to sample every 10 mins., and attached to a double-sided cotton sport wrist band using Velcro, with the sensor face of the I-Button placed over the inside of the wrist, on the radial artery of the dominant hand. Subjects removed and replaced the data logger when necessary (i.e., to have a bath or shower). […] From the collected data, the mesor, amplitude, acrophase (time of peak temperature), Rayleight test (an index of interdaily stability), mean waveforms are calculated.);
# (§3) Assessments were made at baseline and at the end of the fixed dose and washout periods. Circadian system status was evaluated by continuously monitoring wrist skin temperature (Thermochron iButton DS1921H; Maxim, Dallas) following published procedures (Sarabia et al. 2008).
# Circadian rhythm of skin temperature was evaluable in 12 patients (i.e., those who had recordings that extended from baseline through washout). Circadian system functionality was evaluated by continuously monitoring wrist skin temperature using a temperature sensor (Thermochron iButton DS1921H; Maxim, Dallas, Tex.) (Sarabia et al. 2008). […]
# [5] = test system: patients with PD; test: CNS symptoms in Stage 2 (UPDRS, MMSE, PDHQ, BDI-II); assay type: in vivo, human; details: during treatment; 5 patients with hallucinations and 1 with delusions at baseline
# Description: Exploratory end-points, in addition to constipation, included for example, (i) depression assessed using the Beck Depression Inventory (BDI-II) (Steer et al. 2000) and Unified Parkinson's Disease Rating Scale (UPDRS); (ii) cognition assessed using the Mini Mental State Examination (MMSE) (Palsteia et al. 2018), Unified Parkinson's Disease Rating Scale (UPDRS), and Trail Making Test (TMT); (iii) sleep and REM-behavior disorder (RBD) using a daily sleep diary, I-Button Temperature Assessment, a REM sleep behavior disorder (RBD) questionnaire (RBDQ) (Stiasny-Kolster et al. 2007), and the UPDRS; (iv) hallucinations assessed using the PD hallucinations questionnaire (PDHQ) (Papapetropoulos et al. 2008), the UPDRS, and direct questioning; (v) fatigue using the Parkinson's Disease Fatigue Scale (PFS-16) and the UPDRS; (vi) motor functions using the UPDRS; and (vii) non-motor functions using the UPDRS.
# as §3
# An exploratory analysis was done with respect to the sleep data, the body temperature data, mood, fatigue, hallucinations, cognition and other motor and non-motor symptoms of PD. […]
# [6] = Solubility in water; assay type: physicochemical; details: phosphate salt
# [7] = Safety and adverse event (AE) profile, Phase 2 trial of oral squalamine (ENT-01); assay type: in vivo, human
# Protocol: as §1, §2
# [8] = test system: C. elegans αS model; details: cited from earlier work; for formation of αS aggregates: C. elegans model of PD in vivo
# [9] = target: T1, αS; details: in vitro; cited from earlier work; remark: listed apart in the source
# [10] = test system: mouse models of PD; details: mouse models of PD (constipation due to overexpression of human αS); cited from earlier work
# [11] = test system: IPANs (intrinsic primary afferent neuron); details: perfusion through the lumen of isolated bowel segment from the PD mouse model; cited from earlier work
# [12] = following systemic administration, mice, into the duodenum through the biliary tract; cited from earlier work
# [13] = dilactate salt, single and repeat intravenous administration, alone or in combination; cited from earlier work
# [14] = test system: gastrointestinal motility; details: prior studies; cited from earlier work
# [15] = Stage 2, 34 dosed, unrelated to ENT-01
compound,measurement,setting,value
"CC(C)[C@@H](CC[C@@H](C)[C@H]1CC[C@H]2[C@@H]3[C@H](O)C[C@H]4C[C@@H](NCCCNCCCCN)CC[C@]4(C)[C@H]3CC[C@]12C)OS(=O)(=O)O (single isomer, unassigned) [squalamine (ENT-01)]",absorption from the intestine,[1],low
same,mean dose required for a bowel (prokinetic) response,[2],120 mg
same,displacement of αS from membranes,[3],displace αS from membranes
same,"markers of circadian function (IS, RA, CFI, IV) of wrist skin temperature rhythm",[4],improved all markers of healthy circadian function
same,hallucinations and delusions improved or disappeared,[5],5 of 6
same,solubility in water,[6]; neutral pH,weakly soluble in water
same,dissolution in water,[6]; pH<3.5 (the pH of gastric fluid),readily dissolves
same,"Blood in urine, Mild",[7]; [15],0 n
same,"Loss of appetite, Mild",[7]; [15],0 n
same,"Lower GI bleed, Severe","[7]; Stage 2, colonic diverticulosis, polyp, patient on aspirin, Plavix and naproxen, unrelated to ENT-01",1 n
same,patients with worsening of hemorrhoids,"[7]; both stages, 1/44 patients",2.2%
same,patients with worsening of acid reflux,"[7]; both stages, 2/44 patients",4.5%
same,patients with flatulence,"[7]; both stages, 3/44 patients",6.8%
same,patients with vomiting,"[7]; both stages, 3/44 patients",6.8%
same,patients with dizziness,"[7]; both stages, 8/44 patients",18%
same,patients with abdominal pain,"[7]; both stages, 11/44 patients",32%
same,formation of αS aggregates,[8],inhibit the formation of aggregates of αS
same,formation of αS aggregates,[9],inhibit the formation of aggregates of αS
CC(C)[C@@H](CC[C@@H](C)[C@H]1CC[C@H]2[C@@H]3[C@H](O)C[C@H]4C[C@@H](NCCCNCCCCN)CC[C@]4(C)[C@H]3CC[C@]12C)OS(=O)(=O)O [squalamine],effect on gastrointestinal motility,[10],stimulates gastro-intestinal motility; also recorded: restores gastrointestinal motility; also recorded: reverse gastrointestinal dysmotility
same,effect on IPANs,[11],excitation of IPANs
same,clearance and excretion,[12],cleared by the liver and excreted as the intact molecule
same,well tolerated dose,[13],at least 300 mg/m^2
same,formation of αS aggregates,[8],inhibits the formation of αS aggregates
same,muscle paralysis / motor dysfunction,[8]; C. elegans αS model,reverses motor dysfunction; also recorded: complete reversal of muscle paralysis
same,gastrointestinal motility after intravenous administration,[14],not associated with increased gastrointestinal motility
same,formation of αS aggregates,[9],inhibits the formation of αS aggregates
